Data from patent US20090220516A1, “Neuroprotection of retinal ganglion cells” (priority 2005, published 2009).

Tests used:
retinal ganglion cells = test: Cell viability studies: labeled retinal ganglion cells surviving after 24 hrs in mixed retinal cultures; format: cell-based, rat; conditions: 300 uM ATP alone, 24 hrs
Experimental: Pups PD2-6 from untimed pregnant Long-Evan rats (Jackson Laboratory Inc., Bar Harbor, Me.) were back-labeled by the injection of FluoroGold derivative aminostilbamidine (Molecular Probes, Eugene, Oreg.) based upon standard protocols. […] Using a Hamilton syringe affixed to a micromanipulator, a needle was inserted 0.8 mm lateral from the midline and 0.8 mm anterior to Bregma's line and a total of 2.5 μl dye was delivered to each side at a depth of 2 mm and 1 mm. The needle was retracted after a delay of 2 min to allow dye absorption and the wound was closed with 2-3 sutures. Preliminary examination of labeled retinal whole mounts confirmed an even distribution of dye, showing all cells were stained 2 days after injection, with no further increase in the number of labeled cells in subsequent days. Consequently, retinas containing labeled ganglion cells were dissociated 2-6 days after injection. Animals were sacrificed by i.p. injection of 50/5 mg/kg Ketamine/Xylazine followed by an overdose, in accordance with University of Pennsylvania IACUC approved protocols and the ARVO Statement on the Use of Animals in Ophthalmic and Vision Research.
The retina was dissected from each globe, washed in sterile Hanks' balanced salt solution (HBSS, Gibco, Inc Invitrogen Corp., Carlsbad, Calif.), then incubated in HBSS containing activated papain (4.5 U/ml; Worthington Biochemical Corp., Lakewood, N.J.) for 12 minutes at 37° C. Retinas were washed twice and triturated 50 times with a 1-ml glass pipette to dissociate cells. Cells were plated onto twelve 12-mm coverslips previously coated with poly-L-lysine. […] Retinal cells were incubated at 37° C. with 5% CO2.
Drugs were added to the culture medium at the time when cells were plated onto coverslips. […] All counts were performed in a masked fashion. In experiments involving antagonist pretreatment, drugs were added to the medium at the time of plating. After preincubation at 37° C., stock concentrations of BzATP were added directly to the cells to give the final concentration shown.
Data are presented as mean±standard error of the mean. Significance was evaluated using a Student's unpaired t test, with a p value <0.05 signifying significance. For cell viability studies, the number of experiments, n, represents the number of coverslips from which 80 fields were measured and averaged. All values were normalized to the mean control level for that day's matched set of experiments to control for variation in plating efficiency.

rat P2X7 receptor = target: T1, rat P2X7 receptor (Rattus norvegicus, UniProt Q64663); conditions: cited from earlier work
T1 sequence (Q64663 1-595): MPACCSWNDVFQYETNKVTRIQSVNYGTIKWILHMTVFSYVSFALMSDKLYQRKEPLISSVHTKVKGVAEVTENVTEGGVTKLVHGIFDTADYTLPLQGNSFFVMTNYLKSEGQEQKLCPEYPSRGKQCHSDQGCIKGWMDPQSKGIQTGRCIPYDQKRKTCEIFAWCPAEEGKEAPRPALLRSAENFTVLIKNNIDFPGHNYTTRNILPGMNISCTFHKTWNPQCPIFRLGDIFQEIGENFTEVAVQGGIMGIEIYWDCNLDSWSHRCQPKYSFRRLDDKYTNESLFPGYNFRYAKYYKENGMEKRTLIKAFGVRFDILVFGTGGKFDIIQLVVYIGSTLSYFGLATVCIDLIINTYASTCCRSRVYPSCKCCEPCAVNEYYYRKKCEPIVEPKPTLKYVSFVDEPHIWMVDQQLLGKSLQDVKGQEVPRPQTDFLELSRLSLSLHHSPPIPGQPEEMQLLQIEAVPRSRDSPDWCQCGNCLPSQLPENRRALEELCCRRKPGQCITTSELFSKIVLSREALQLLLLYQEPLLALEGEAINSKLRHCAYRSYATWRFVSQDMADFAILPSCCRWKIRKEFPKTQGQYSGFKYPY

retina eyecup = test: Pressure-triggered ATP release from the bovine retina eyecup; conditions: 30 μM NPPB, 15 minutes preincubation and in medium
Text: C. ATP release by increased extracellular pressure is inhibited by the general chloride channel blocker NPPB, indicating physiologic significance. […] The ATP levels were normalized with the non-pressure and non NPPB eyecup control levels (white bar). Bars represent the mean±standard error. Numbers indicates the number of retina eyecups per experiment. We performed ANOVA test (Dunnett post-test) to obtain the significant differences indicated by a * symbol (p<0.05) as significant difference with control and ** (p<0.05) as significant difference with the pressure challenged eyecups.

SMILES	effect on ganglion cell survival (retinal ganglion cells)	EC50 (rat P2X7 receptor) [µM]	effect on ATP release induced by 20 mm Hg rise in extracellular pressure (retina eyecup)
Nc1ncnc2c1ncn2C1OC(COP(=O)(O)OP(=O)(O)OP(=O)(O)O)C(O)C1O (stereo not drawn) [ATP]	small but significant increase in cell survival	300	
O=C(O)c1cc([N+](=O)[O-])ccc1NCCCc1ccccc1 [NPPB, 5-nitro-2-(3-phenylpropyl-amino)benzoic acid]			inhibits the ATP release
